Test results taken from patent US8173604B2, “Inhibition of Skp2-cyclin a interaction” (Albert Einstein College of Medicine of Yeshiva University, priority 2006, dated 2012).
Entries after “also recorded” stand apart in the source; their conditions may differ. Numbered stars: 1 amine (or outer) side, 2 acyl side, 3 side chain; on linkers, the order of the positions; unused ones are H or OH. Bridge positions count the residues as written; N and C are the ends. Square brackets hold non-standard residues; d marks the D form. Peptide text beside a SMILES is read from it. I, II: the chains in the order shown. Actinocin(9to1) = Cc1c2oc3c(C)ccc(C(=O)[*:1])c3nc-2c(C(=O)[*:2])c(N)c1=O; NMeV = CN[C@H](C(=O)O)C(C)C; Sar = CNCC(=O)O

Columns and labels:
cyclin A/Cdk2 [1] = target: T1, cyclin A/Cdk2 (Homo sapiens, UniProt P20248+P24941); experiment: In vitro cyclin A/Cdk2 kinase assay with purified proteins (GST-Rb-C substrate); type: biochemical; conditions: for Preventing Skp2N from protecting cyclin A/Cdk2 from inhibition by p27: cyclin A/Cdk2 3 nM, p27 5 nM, Skp2N 80 nM, increasing amounts of peptide
T1 construct: made in house; host or cells: insect cells (baculovirus)
Method: (§1) Cyclin A/Cdk2 kinase assays were performed as described previously (Ji et al., 2004). Both immuno-purified myc-cyclin A/Cdk2 on beads and GST-purified and eluted GST-cyclin A/Cdk2 (baculovirus vectors for GST-cyclin A and Cdk2 were provided by Brian Dynlacht) were used. The amounts of purified proteins were determined by comparing them with known amounts of standard proteins in Coomassie blue stained gels. Phosphorylation of GST-Rb-C was quantified with the ImageQuant software. The Ki of various proteins was determined by non-linear least squares analysis. To determine the amounts of various proteins in synchronized HeLa cells, extracts representing 7.5×10^4 HeLa cells were resolved with known amounts of purified proteins and compared in the same Western blots. Actual amounts of proteins in 7.5×10^4 HeLa cells were then determined (for example, the amounts of p27, Skp2, and cyclin A in 7.5×10^4 HeLa cells were determined to be about 0.1, 0.2, and 0.1 pmoles, respectively, at 14 hours post-replating; and about 0.01, 0.1, and 1.0 pmoles, respectively, at 19 hours post-replating).
For kinase reactions, insect cell-produced and purified GST-cyclin A/Cdk2 was used at a concentration of ˜3 nM, which was the lowest concentration that yielded readily detectible phosphorylation of GST-Rb-C here. Purified p27, GST-Skp2, and Skp2N were titrated into the kinase reaction over a wide range of concentrations (FIGS. 7A, B, and C). Phosphorylation of Rb-C was measured and plotted, and the Ki of these various proteins were determined by non-linear least squares analysis (FIG. 7F).
Since Skp2 competes with p27 for binding to cyclin A and Skp2's Ki is about 100-fold higher than p27's Ki, it can be reasoned that, at concentrations well below its Ki, Skp2 might be able to protect cyclin A/Cdk2 from inhibition by p27. To test this hypothesis, the same cyclin A/Cdk2 kinase assay was carried out to determine the inhibitory activity of p27 in the presence of 80 nM of Skp2N.
It was then determined whether the 4060 peptide could prevent Skp2N from protecting cyclin A/Cdk2 from inhibition by p27. […] When 80 nM of Skp2N was included, 5 nM of p27 lost its ability to inhibit the kinase activity (lane 3). […] These findings indicate that the Skp2-cyclin A interaction is also a potential target to inhibit cyclin A kinase activity in tumor cells, particularly those overexpressing Skp2.
To test this prediction, various peptides were added to an in vitro kinase reaction with purified cyclin A/Cdk2 (˜3 nM concentration). An E2F1-derived RxL peptide, LDL peptide, was used for comparison since it could inhibit cyclin A/Cdk2 kinase activity (Sun et al., 2006, and see next section). Since a TAT sequence was later added to these peptides for trans-membrane delivery (see next section), two versions of each peptide (without TAT and with TAT) was used in these kinase assays. These two versions of peptides yielded identical results and therefore only presented results with one version of the peptides.
The effects of the 4060 peptide on cyclin A/Cdk2 kinase activity in the presence of Skp2 and p27 were then determined.

U2OS cells [2] = conditions: for Cell killing effect: twenty four hours after addition of peptides
Method: It is currently unknown how peptide concentrations in the culture media translate into intro-cellular peptide concentrations.
Whether artificial manipulation of Skp2 protein levels in U2OS cells could change the IC50 of various peptides was also investigated.
(§2) Cell proliferation and survival assays. For the cell proliferation assay shown in FIG. 10D, 1×10^4 cells were plated in each well of 24 well plates and allowed to grow for a course of four days in the presence of 10% FBS. Cell numbers were counted every day from triplet wells. For cell survival assays in FIGS. 13, 14 and 15, 1×10^3 cells were plated in each well of 96 well plates and allowed to adhere overnight in the presence of 10% FBS. The cells were washed once with Opti-MEM (GIBCO) followed by incubation with different concentrations of peptides in Opti-MEM for 24 hours in triplicate. MTS assay was then performed following manufacturer's protocol (Promega).

[3] = test system: human diploid fibroblasts WI-38; experiment: Cell survival MTS assay, WI-38; type: cell-based; conditions: 120 μM, 24 hours
Method: In comparison, both TAT-Umt and TAT-4060 inhibited cyclin A/Cdk2 kinase activity in vitro at peptide concentrations of 100 μM (FIG. 11B). It is currently unknown how peptide concentrations in the culture media translate into intro-cellular peptide concentrations.
as §2

U2OS cells [4] = experiment: Flow cytometry cell cycle profile after actinomycin D; type: cell-based, human; conditions: actinomycin D 180 nM, 20 hours
Method: Drug treatment and various routine assays. Actinomycin D (Sigma) treatment was for 20-22 hours at 180 nM. To arrest HeLa cells in mitotic phase, cells were treated with 100 ng/ml nocodazole (Sigma) for 16-17 hours. Western blotting, immunoprecipitation, indirect immunofluorescence, and flow cytometry analysis to determine cell cycle profiles were all performed with standard protocols and as described previously (Ji et al., 2004).
The AAAA mutation compromises Skp2's proliferation stimulatory activity without affecting its ability to cause degradation of cellular p27 and p21. […] Similar to the experiment shown in FIG. 6B, U2OS cells were treated with actinomycin D, which led to activation of p53, stimulation of p21 expression, and G1 cell cycle arrest manifested by a 20% increase in G1 phase cells (FIGS. 9A and B). Skp2 was overexpressed in U2OS cells to determine whether Skp2 could counter the G1 cell cycle arrest mediated by this actinomycin D triggered checkpoint.

[5] = target: T2, Skp2-cyclin A interaction (Homo sapiens, UniProt P20248); experiment: GST pull-down, blocking of Skp2-cyclin A interaction by peptides; type: binding; conditions: for Blocking of Skp2N-cyclin A interaction: GST-Skp2N, myc-cyclin A/Cdk2 transfected 293T cell extracts
T2 construct: expressed in transfected cells; host or cells: 293T (cyclin A/Cdk2)
Method: GST pull down, p27 ubiquitylation assay, and cyclin A kinase assay. GST fusion proteins were purified on GSH-beads (Amersham), which were then incubated with transfected cell extracts for 1 hour in 4° C. with rocking. The beads were washed three times with lysis buffer (25 mM Hepes pH 7.6, 100 mM KCl, 0.1 mM EDTA, 10 mM MgCl2, 0.1% NP-40, 10% glycerol, 1 mM DTT) before analysis by SDS-PAGE and Western blotting.
Skp2-cyclin A interaction and p27-cyclin A interaction can be blocked by distinct peptides. An important aspect of the RxL-1-IP interaction is that it can be blocked by a short RxL peptide (Adams et al., 1996). If the Skp2-cyclin A/Cdk2 interaction and the p27-cyclin A/Cdk2 interaction are mediated by different sequences on both sides of the interaction, as shown above, it can be predicted that the RxL peptide should not block Skp2-cyclin A interaction. […] Peptide concentrations required for their respective blocking activities were similar for RxL and 4060 peptides.

cyclin A/Cdk2 [6] = target: T1, cyclin A/Cdk2; experiment: IP-kinase assay with myc-cyclin A/Cdk2 transfected 293T cell extract; type: biochemical; conditions: increasing amounts of peptide
Method: In panel A, an IP-kinase assay was performed with myc-cyclin A/Cdk2 transfected 293T cell extract in the presence of increasing amounts of RxL or 4060 peptides. Phosphorylation of GST-Skp2N is visible in this gel. […] As indicated, increasing amounts of the 4060 or 4060AAAA peptides were included in the reactions. Phosphorylation of Rb-C was quantified and plotted as shown.
as §1, with “To determine the amounts of various proteins in synchronized HeLa cells, extracts representing 7.5×10^4 HeLa cells were resolved with known amounts of purified proteins and compared in the same Western blots.” left out, “post-replating). […]” for “post-replating).”

[7] = target: T3, interaction between cellular Skp2 and cyclin A/Cdk2 (Homo sapiens, UniProt P20248); experiment: Coimmunoprecipitation with cyclin A from peptide-treated U2OS cells; type: cell-based; conditions: 50 μM peptide, twelve hours
T3 construct: endogenous in cells; host or cells: U2OS
Method: FIG. 12 is photographs of western blots and kinase assays and graphs showing the effects of trans-membrane delivery of the 4060 peptide. In Panel A, U2OS cells were treated with 50 μM of indicated peptide for twelve hours. Cell extracts were prepared for immunoprecipitation and Western blot analysis as indicated. […] In Panel C, the same extracts were used in IP-kinase assays as indicated. The extent of phosphorylation was quantified and plotted.
The loss of Skp2-cyclin A/Cdk2 interaction was not due to a reduction in levels of these proteins (FIG. 12B). Importantly, cellular p27 protein levels were not affected by the blocking peptide. […] Here, it is important to point out that although we used p27 as an inhibitor of cyclin A-associated kinase activity in purified kinase reactions with the 4060 blocking peptide shown in FIG. 11, the effects of blocking Skp2-cyclin A interaction on cyclin A-associated kinase activity in cells is unlikely to be mediated by p27 alone. There was no significant interaction between p27 and cyclin A in U2OS cells before and after treatment of TAT-4060. p27 family members p21 and p57, and the pocket proteins p107 and p130 (Adams et al., 1996) may bind and inhibit cyclin A-associated kinase activity through the RxL-HP interaction mechanism. […]

CC(C)C[C@H](NC(=O)[C@H](CC(=O)O)NC(=O)[C@H](CC(C)C)NC(=O)[C@H](CCCNC(=N)N)NC(=O)[C@H](CCCNC(=N)N)NC(=O)[C@H](CCCCN)NC(=O)[C@@H](NC(=O)[C@@H]1CCCN1C(=O)CNC(=O)[C@H](CCCNC(=N)N)NC(=O)[C@H](CCCNC(=N)N)NC(=O)[C@H](CCCNC(=N)N)NC(=O)[C@H](CCC(N)=O)NC(=O)[C@H](CCCNC(=N)N)NC(=O)[C@H](CCCNC(=N)N)NC(=O)[C@H](CCCCN)NC(=O)[C@H](CCCCN)NC(=O)[C@H](CCCNC(=N)N)NC(=O)CNC(=O)[C@@H](N)Cc1ccc(O)cc1)C(C)C)C(=O)O [TAT-LDL, reference compound]
Inhibition of cyclin A/Cdk2 kinase activity towards GST-Rb-C (cyclin A/Cdk2 [1]; 1 μM peptide, cyclin A/Cdk2 ~3 nM): ten-fold | Cell killing effect of single peptide (U2OS cells [2]; U2OS, 1 or 2 μM, 24 hours): neither TAT-LDL nor TAT-4060 exhibited any cell killing effects | Change of peptide effect by Skp2 knockdown or overexpression (U2OS cells [2]; U2OS): not affected by Skp2 knockdown or overexpression | WI-38 cells killed [3]: 25%

Cc1c2oc3c(C)ccc(C(=O)N[C@@H]4C(=O)N[C@H](C(C)C)C(=O)N5CCC[C@H]5C(=O)N(C)CC(=O)N(C)[C@@H](C(C)C)C(=O)O[C@@H]4C)c3nc-2c(C(=O)N[C@@H]2C(=O)N[C@H](C(C)C)C(=O)N3CCC[C@H]3C(=O)N(C)CC(=O)N(C)[C@@H](C(C)C)C(=O)O[C@@H]2C)c(N)c1=O [actinomycin D, Actinomycin D] (I: T[dV]P[Sar][NMeV] / II: T[dV]P[Sar][NMeV]; ester I:1-I:C, II:1-II:C; linker I:N-II:N via Actinocin(9to1))
Increase in G1 phase cells (U2OS cells [4]): 20%

KTSEAASGMGVAAAEKEE (peptide 4060AAAA) [4060 peptide with the four conserved residues mutated to alanine, reference compound]
Blocking of Skp2N-cyclin A interaction [5]: abolished the blocking activity | Preventing Skp2N from protecting cyclin A/Cdk2 from inhibition by p27 (cyclin A/Cdk2 [1]): did not have significant effects; also recorded: much weaker in disrupting the protective effect of Skp2N

KTSELLSGMGVSALEKEE (listed as Homo sapiens) [compound 4060]
Blocking of Skp2N-cyclin A interaction [5]: can block | Blocking of binding between full-length GST-Skp2 and cyclin A/Cdk2 ([5]; full-length GST-Skp2): blocked binding | Preventing Skp2N from protecting cyclin A/Cdk2 from inhibition by p27 (cyclin A/Cdk2 [1]): p27 gradually regained its inhibitory effects; also recorded: abolished this protective effect in a dose-dependent manner | Effect of peptide itself on cyclin A/Cdk2 kinase activity towards Rb-C (cyclin A/Cdk2 [6]): did not

YGRKKRRQRRRGETDHQYLAESS (TAT-Umt) [negative control peptide, reference compound]
Inhibitory effect on cyclin A/Cdk2 kinase activity (cyclin A/Cdk2 [1]; 1 μM and 10 μM peptide): did not show inhibitory effect | Inhibition of cyclin A/Cdk2 kinase activity (cyclin A/Cdk2 [1]; 100 μM peptide): significant inhibition | Cell killing effect at 120 μM (U2OS cells [2]; 120 μM): did not exhibit cell killing effects | Change of peptide effect by Skp2 knockdown or overexpression (U2OS cells [2]; U2OS): not affected by Skp2 knockdown or overexpression | Cell killing effect (U2OS cells [2]; U2OS): did not have cell killing effects | WI-38 cells killed [3]: no effect

YGRKKRRQRRRGKTSEAASGMGVAAAEKEE (TAT-4060AAAA) [reference compound]
Dissociation of interaction between cellular Skp2 and cyclin A/Cdk2 [7]: did not have this effect | Cell killing effect (U2OS cells [2]; U2OS): did not have significant cell killing effects
